Measured values reported in EP0445735A1, “Melanogenesis-inhibiting endermic preparation” (Sansho Seiyaku Co., Ltd., priority 1990, dated 1991).

Test system: B16 cells
Assay: Test of whitening B16 cells (whiteness of cell pellets observed with the naked eye)
Type: cell-based
Conditions: for EC (whiteness 3+): Mus musculus, whiteness of cells 3 + (gray), read-out: Concentration of the test compound to give whiteness of cells of being 3 + (gray); for Whiteness of Cells: cell pellets after five days
Method: PMC was added to Eagle's MEM medium, to which a fetal calf serum had been added, in a concentration of 100, 50, 20 or 10 µM. 1 × 10⁵ B16 cells were inoculated into the medium. Three days after the inoculation, the medium was exchanged for a fresh one.
Standards of evaluation of whiteness of cells are as follows: 5 + : White 4 + : White to Gray 3 + : Gray 2 + : Gray to Black 1 + : Black (but somewhat paler than control) - : Black

Compound	EC (whiteness 3+) [µM]	Whiteness of Cells (Concentration 10 µM)	Whiteness of Cells (Concentration 20 µM)	Whiteness of Cells (Concentration 50 µM)	Whiteness of Cells (Concentration 100 µM)
COC1(C)CCc2c(C)c(O)c(C)c(C)c2O1 (stereo not drawn) [(3), 2,5,7,8-Tetramethyl-2-methoxzy-6-hydroxychroman]	50				
Cc1c2c(c(C(C)C)c(O)c1C(C)C)CCC(C)(C)O2 [(4), 2,2,8-Trimethyl-5,7-diisopropyl-6-hydroxychroman]	20				
Cc1c(C)c2c(c(C)c1O)CCC(C)(CO)O2 (stereo not drawn) [(5), 2,5,7,8-Tetramethyl-6-hydroxy-2-hydroxymethylchroman]	40				
CCOC(=O)CC1(C)CCc2c(C)c(O)c(C)c(C)c2O1 (stereo not drawn) [(6), Ethyl 2,5,7,8-tetramethyl-6-hydroxychroman-2-acetate]	30				
Cc1c(C)c2c(c(C)c1O)CCC(C)(C)O2 [PMC, 2,2,5,7,8-Pentamethyl-6-hydroxychroman]	50	1 +	2 +	3 +	4 +
